The record followed here is PubChem BioAssay (NCI).

Test in all cases: inhibition of tumour cell growth, NCI panel, 48 h
For test [1], the system named is NCI-H23 lung.
Test [2] concerns UACC-257 melanoma.
Test [3] concerns OVCAR-8 ovarian.
The subject of test [4] is DU-145 prostate.
The subject of test [5] is HCC-2998 colon.
In test [6] the test system is OVCAR-4 ovarian.
The subject of test [7] is A549 NSCLC.
The test system of test [8] is SW-620 colon.

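1) Cells in 96-well plates. 2) Compound, 48 h, 5 concentrations. 3) Linear interpolation between surrounding doses. 4) Unreached endpoint = highest concentration. Abbreviation: GI50, concentration required for 50% inhibition of growth. TGI denotes the concentration required for complete inhibition of growth.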 Bounds are passed on as bounds.

As to `O=C(/C=C/c1cccs1)c1ccccc1Cl`, the TGI in test [1] is 25.8 µM; in test [2] it was 34.2 µM; in test [3], above 100 µM; in test [4] it was 26.4 µM; in test [5], 32.2 µM; in test [6] it was 26.8 µM. Besides, the TGI in test [7] stood at 1.4 µM; in test [8] it was 40.9 µM.

In the case of `Cc1ccc(/C(O)=C/c2nc3ccc([N+](=O)[O-])cc3nc2/C=C(\O)c2ccc(C)cc2)cc1`, the TGI in test [1], in test [2], in test [3], in test [4], in test [5] and in test [6] was above 100 µM throughout. Further, the TGI in test [7] and in test [8] was above 100 µM each time.

For the compound `CC(C)C(=O)Oc1cc2c(=O)oc3c(OC(=O)C(C)C)c(OC(=O)C(C)C)cc4c(=O)oc(c1OC(=O)C(C)C)c2c34`, the TGI in test [1], in test [2], in test [3], in test [4], in test [5] and in test [6] was above 100 µM each time. The TGI in test [7] and in test [8] was above 100 µM throughout.

Consider `CCOC(=O)c1cnccc1CC1(C#N)c2ccccc2C=CN1C(=O)c1ccccc1` (configuration not stated), for which the TGI in test [1] was above 100 µM; in test [2] it was above 100 µM; in test [3] it was 37.2 µM; in test [4], above 100 µM; in test [5], above 100 µM; in test [6] it was above 100 µM. In addition, the TGI in test [7] and in test [8] was above 100 µM throughout.

In the case of `C=C1C(=O)O[C@H]2[C@H]3O[C@@H](C[C@@H]12)[C@](C)(O)CC[C@@H]1O[C@@]1(C)CCC[C@H]3C`, the TGI in test [1] is 41.7 µM; in test [2] it was 89.6 µM; in test [3], 47.5 µM; in test [4], 33.4 µM; in test [5], 55.5 µM; in test [6], 51.8 µM. Moreover, the TGI is above 100 µM in test [7] and 42.1 µM in test [8].

Consider `C/C(=N\Nc1nc2ccccc2[nH]1)c1cc2ccccc2cn1`, for which the TGI turned out to be 1.64 µM in test [1]; 5.67 µM in test [2]; 1.24 µM in test [3]; 1.91 µM in test [4]; 3.46 µM in test [5]; 2.41 µM in test [6]. For the same compound, the TGI was above 100 µM in test [7] and 1.65 µM in test [8].

On to `Cc1ccc(S(=O)(=O)N(CC(O)COc2ccccc2)c2ccc(F)cc2F)cc1` (configuration not stated), for which the TGI in test [1] worked out at 27.7 µM; in test [2] it was 33.3 µM; in test [3], 31.3 µM; in test [4], 46.9 µM; in test [5], 29.7 µM; in test [6] it was 23.8 µM. For the same compound, the results for the TGI in test [7] and in test [8] were 26.9 µM and 31.9 µM, respectively.

For the compound `C(/Cc1ccc2c(c1)OCO2)=N\NC1=NCCCN1`, the TGI in test [1], in test [2], in test [3], in test [4], in test [5] and in test [6] was above 100 µM in each case. The TGI in test [7] and in test [8] was above 100 µM in each case.

Take `COC(=O)[C@@H]1CN(C(=O)c2ccccc2)C(=O)N1C(=O)OCc1ccccc1`: the TGI in test [1], in test [2], in test [3], in test [4], in test [5] and in test [6] was above 100 µM in each case. Also, the TGI in test [7] and in test [8] was above 100 µM in each case.

For the compound `NCCC1CN(C(=O)OCc2ccccc2)c2ccccc21` (configuration not stated), the TGI was 41.8 µM in test [1]; 37.8 µM in test [2]; 20.3 µM in test [3]; 48.9 µM in test [4]; 33.9 µM in test [5]; above 55.8 µM in test [6]. Moreover, the TGI is above 53.6 µM in test [7] and 25.4 µM in test [8].

For the compound `CO[C@H]1C[C@H](O[C@H]2CC[C@]3(C=O)[C@H]4CC[C@]5(C)[C@@H](C6=CC(=O)OC6)CC[C@]5(O)[C@@H]4CC[C@]3(O)C2)O[C@H](C)[C@H]1O`, the TGI in test [1] was found to be 0.787 µM; in test [2], 1.43 µM; in test [3] it was 1.03 µM; in test [4], 0.462 µM; in test [5], 8.36 µM; in test [6], 0.341 µM. The TGI came to 0.198 µM in test [7] and 2.71 µM in test [8].

In the case of `CN(C)C(=S)Oc1ccc2ccc(=O)oc2c1`, the TGI in test [1], in test [2], in test [3], in test [4], in test [5] and in test [6] was above 100 µM in each case. The TGI in test [7] and in test [8] was above 100 µM throughout.

For the compound `CCOC(=O)C1(C(F)(F)F)N=C(CC)OC(N2CCOCC2)=N1` (configuration not stated), the TGI in test [1], in test [2], in test [3], in test [4], in test [5] and in test [6] was above 100 µM in each case. For the same compound, the TGI in test [7] and in test [8] was above 100 µM each time.

Turning to `NC1=NCC(CN2CCCC2)O1` (configuration not stated), the TGI in test [1], in test [2], in test [3], in test [4], in test [5] and in test [6] was above 100 µM throughout. Moreover, the TGI in test [7] and in test [8] was above 100 µM each time.

For the compound `C=CC1CN2CCC1CC2C(O)c1ccnc2ccccc12` (configuration not stated), the TGI in test [1], in test [2], in test [3], in test [4], in test [5] and in test [6] was above 100 µM each time. The TGI in test [7] and in test [8] was above 100 µM throughout. For the same compound, the GI50 in test [5] and in test [6] was above 100 µM in each case.
